Laboratory results: patent US6258776A, “Calcium-regulated kinase” (priority 1997, dated 2001)

Experiments:
calmodulin (CaM-agarose) = assay: binding of Ndr and deletion mutants from COS-1 cell lysates to CaM-agarose
Description: In addition, the ability of untagged Ndr to interact with CaM is investigated. COS-1 cells are transfected with pECE or with derivative plasmids encoding wild-type Ndr, NdrΔ65-81 or NdrΔ1-84 (Millward, T. A., et al., (1995) Proc. Natl. Acad. Sci. USA 92, 5022-5026) using DEAE-dextran (Seed, B. and Aruffo, A. (1987) Proc. Natl. Acad. Sci. USA 84, 3365-3369). Seventy-two hours after transfection, cells are scraped into ice-cold phosphate-buffered saline (PBS), spun down, and disrupted in buffer A (TBS containing 1 mM dithiothreitol, 0.5 mM phenylmethylsulfonyl fluoride, 4 μM leupeptin and 1 mM benzamidine) using a tight-fitting all-glass dounce homogenizer. Extracts (20 μg) are adjusted to 1 mg/ml, supplemented with either 1 mM CaCl2 or 1 mM EGTA and then mixed for 2 h with 6 μl CaM-agarose. After washing three times with 1 ml of the corresponding binding buffer, the beads are eluted with buffer A containing 5 mM EGTA. Equal portions of the unbound and EGTA-eluted fractions are analysed by immunoblofting with anti-Ndr antibodies.
Samples are separated by SDS-PAGE and electroblotted to Immobilon-P membranes (Millipore). Blots are incubated in blocking buffer (50 mM Tris-HCl pH 7.5, 150 mM NaCl, 1% (v/v) Triton X-1 00, 0.5% (v/v) Tween 20, 5% (w/v) skim milk powder) and then probed for 2 h with primary antibodies diluted in the same buffer. Ndr and GST-Ndr are detected with Ab^452-465 at 4 μg/ml (Millward, T. A., et al., Op. Cit.); GST is detected with an anti-GST antiserum (1 :1000 dilution). Bound antibodies are detected using horseradish peroxidase-conjugated donkey anti-rabbit IgG antibodies and ECL substrates (Amersham).
To verify whether this domain of Ndr is indeed responsible for its interaction with CaM, deletion mutants of Ndr are expressed in COS-1 cells and tested for CaM binding as above. […] In lysates supplemented with Ca^2 , deletion of amino acids 65-81 cause a large reduction in CaM binding (to ~10% of the level of wild-type binding) as assessed by western blotting.

calmodulin = details: cited from earlier work
S100B = assay: co-immunoprecipitation of Ndr with anti-S100B from COS-1 cells; assay type: cell-based; details: co-expressed with S100B
Method: For expression of Ndr and S100B in mammalian cells, the cDNAs encoding Ndr and S100B are cloned into the pECE vector, which directs expression driven by an SV40-derived promoter. In addition, an amino-terminal truncation mutant of Ndr lacking the first 84 amino acids (1-84) is used.
The plasmids encoding Ndr and S100B are transfected into COS-1 cells, either alone or in combination. Seventy-two hours later, cells extracts are prepared and immunoprecipitated with an antibody recognising S100B. In an anti-Ndr western blot of the cell extracts, it is shown that Ndr is expressed an expected.

Ndr: nuclear serine/threonine protein kinase
binding to CaM-agarose (calmodulin (CaM-agarose); lysate supplemented with EGTA): no detectable binding | binding to CaM-agarose (calmodulin (CaM-agarose); lysates supplemented with Ca^2+): quantitatively and selectively removed from the lysate by CaM-agarose | binding to calmodulin (calmodulin): capable of binding to calmodulin | co-immunoprecipitation with anti-S100B (S100B): anti-S100B antibodies co-immunoprecipitated Ndr
